Publication PMC7883289, “Synthesis of Paeonol-Ozagrel Conjugate: Structure Characterization and In Vivo Anti-Ischemic Stroke potential” (Frontiers in Pharmacology, 2021)

Key:
Format in all cases: in vivo
[1] = test system: middle cerebral artery occlusion (MCAO) rats; assay: HE staining, histopathologic changes in brain cortex of MCAO rats; settings: 24 h after treatment, POC 4.5 mg/kg iv, compared with the model group, n = 3
Protocol: (§1) Male Sprague Dawley (SD) rats weighing among 220 g–230 g (Anhui Medicine University, Hefei, China; certificate number: SCXK20190,003) were housed under ad libitum access to food and water with a standardized light-dark cycle condition (25 ± 2°C, 12–hour light/dark cycle). All the experimental protocols were performed in accordance with the Institutional Animal Care and Use Committee of Anhui University of Chinese Medicine (Animal ethics number: AHUCM–rats–2019001). We used the minimal number of study animals (n = 6 rats in each group for different experiments). The rats were fastened upon the operating table in a supine position after being anesthetized with 2% pelltobarbitalum natricum (50 mg/kg). After disinfection of the skin within close proximity of the operative region, the right common carotid artery (CCA), external carotid artery (ECA) and internal carotid artery (ICA) were exposed with blunt dissection. The CCA was temporarily ligated and the ECA were permanently ligated ([Liu et al., 2016]). A nylon monofilament surgical thread was introduced into the ICA to block the MCA when the blunted distal end met resistance. After 2 h of occlusion, reperfusion was accomplished to restore blood supply to the MCA area by removing the filament ([Li et al., 2009]; [Zhai et al., 2017]). […] Rats were split randomly into five groups, including the sham, model, paeonol, OS and POC group. […]

SOD and MDA = assay: Oxidative stress biomarker assay (SOD, MDA) in brain tissue of MCAO rats; settings: whole brain homogenate, POC 4.5 mg/kg iv compared with the paeonol and OS groups (3 mg/kg iv), n = 6
Protocol: as §1, with “A microplate reader was used to measure” for “Rats were split randomly into five groups, including”, “absorbance at 450” for “sham, model, paeonol, OS”, “532 nm with a UV spectrophotometer.” for “POC group.”

[2] = Pharmacokinetic study after intravenous injection, LC-MS/MS of plasma; settings: rat, rats, 4.5 mg/kg
Protocol: Six rats were given POC (4.5 mg/kg) by intravenous injection, then, an approximately 1.0 ml sample of blood was obtained from the fossa orbitalis vein of rats and placed into heparin–rinsed EP pipes according to a programmed schedule at 3, 5, 10, 20, 30, 45, 60, 120, and 240 min after dosing.
Plasma (80 μL) was mixed with glibenclamide (20 μL) as the internal standard, and then 900 μL of acetonitrile was used to precipitate the protein. All samples were vortex–mixed for 5 min, then centrifuged at 15,000 r/min for 10 min. Then, 800 μL of supernatant was measured, blowed dry by nitrogen, and reconstituted with 100 μL of acetonitrile.
The Thermo Fisher Scientific Hypersil GOLD column (2.1 mm × 100 mm, 1.9 μm) was used as the analytical column; it was maintained at 30°C with 1.0 mmol/L of ammonium acetate (A) and mathanol (B) as the mobile phase, using glibenclamide as the internal standard (IS). The gradient elution program was operated as follows: 0–1.5 min, 55% B–65% B; 1.5–2.5 min, 65% B–80% B; 2.5–3.0 min, 80% B–90% B; 3.0–4.0 min, 90% B; 4.0–4.5 min, 90% B–55% B; 4.5–6.0 min, 55% B. The sample injection volume was 5.0 μL, and the flow rate set at 0.2 ml/min.
Mass spectrometry was operated with multiple reaction monitoring (MRM) in a positive ionization mode. The ion pair of POC is m/z 377.1 and 163.0; the declustering voltage (DP) is 28 eV; and the collision energy (CE) is 30 eV. The ion pair of glibenclamide is m/z 494.1 and 169.0, and the DP is 65 eV, the CE is 50 eV.

With COc1ccc(C(C)=O)c(OC(=O)C=Cc2ccc(Cn3ccnc3)cc2)c1 [POC, paeonol-ozagrel conjugate] the “histopathologic changes in brain cortex (HE)” value [1] was “only marginal neuronal cells damage”, the “MDA levels in brain tissue” value (SOD and MDA) was “lowest MDA levels” and the “SOD levels in brain tissue” value (SOD and MDA) was “highest SOD levels”. It also gave an AUC(0-t) [2] of 264 ng·h/mL, a Cmax [2] of 465 ± 269 ng/mL and a clearance [2] of 277 ± 62.3 mL/min/kg. For the same molecule, the half-life [2] was 53.5 ± 19.6 min and the MRT last ([2]; read-out: MRT0-t (converted)) was 51.9 min.
